Patent publication US12630553B2 (Ascentage Pharma (Suzhou) Co., Ltd., priority 2020, dated 2026)
Where a name gives a salt, the structure may show the parent alone.

How the values were obtained:
[1] = Stability test of salts of compound 1 (HPLC, XRD); assay type: physicochemical
Procedure: 30 mg of the compound was weighed and added into an 8 mL glass bottle, and then was placed under the condition of room temperature (25° C., closed), high humidity (room temperature/75% RH, open) and light (25° C. closed, white light: 5000 Lux, ultraviolet 282 μW/cm2). samples were taken on the 5th, 10th, and 30th day for detection (HPLC, XRD).

[2] = Dynamic water adsorption (DVS) test of compound 1 solid forms; assay type: physicochemical; settings: about 10 mg solid form
Procedure: About 10 mg of the solid form of the compound 1 was taken for dynamic water adsorption (DVS) test.

[3] = Illumination 5K lux closed, day 5
[4] = Illumination 5K lux closed, day 10

| Compound | TRS (%) ([1]; 25° C. closed, day 5) | XPRD ([1]; 25° C. closed, day 5) | TRS (%) ([1]; 25° C. closed, day 10) | XPRD ([1]; 25° C. closed, day 10) | TRS (%) ([1]; 25° C. closed, day 30) | XPRD ([1]; 25° C. closed, day 30) | TRS (%) ([1]; 25° C./75% RH open, day 5) | XPRD ([1]; 25° C./75% RH open, day 5) | TRS (%) ([1]; 25° C./75% RH open, day 10) | XPRD ([1]; 25° C./75% RH open, day 10) | TRS (%) ([1]; 25° C./75% RH open, day 30) | XPRD ([1]; 25° C./75% RH open, day 30) | TRS (%) [1, 3] [%] | XPRD [1, 3] | TRS (%) [1, 4] [%] | XPRD [1, 4] | TRS (%) ([1]; Initial sample, day 0) | XPRD ([1]; Initial sample, day 0) | XRPD after DVS [2] |
| --- | --- | --- | --- | --- | --- | --- | --- | --- | --- | --- | --- | --- | --- | --- | --- | --- | --- | --- | --- |
| CN[C@@H](C)C(=O)N[C@H]1CN(S(=O)(=O)c2cccc(S(=O)(=O)N3CC[C@H]4CC[C@@H](C(=O)NC(c5ccccc5)c5ccccc5)N4C(=O)[C@@H](NC(=O)[C@H](C)NC)C3)c2)CC[C@H]2CCC(C(=O)NC(c3ccccc3)c3ccccc3)N2C1=O (stereo partly drawn) [Compound 1 di-p-toluenesulfonate amorphous Form XVI] | 1.66 | Amorphous | 1.71 | Amorphous | 1.80 | Amorphous | 1.56 | Amorphous | 1.66 | Amorphous | 1.88 | Amorphous | 1.89 | Amorphous | 2.40 | Amorphous | 1.66 | Amorphous | – |
| CN[C@@H](C)C(=O)N[C@H]1CN(S(=O)(=O)c2cccc(S(=O)(=O)N3CC[C@H]4CC[C@@H](C(=O)NC(c5ccccc5)c5ccccc5)N4C(=O)[C@@H](NC(=O)[C@H](C)NC)C3)c2)CC[C@H]2CCC(C(=O)NC(c3ccccc3)c3ccccc3)N2C1=O (stereo partly drawn) [Compound 1 dimethanesulfonate crystalline Form XVIII] | 2.51 | Crystalline Form | 2.57 | Crystalline | 2.55 | Crystalline | – | – | – | – | – | – | 2.63 | Crystalline | 2.64 | Crystalline | 2.44 | Crystalline | No change |
| CN[C@@H](C)C(=O)N[C@H]1CN(S(=O)(=O)c2cccc(S(=O)(=O)N3CC[C@H]4CC[C@@H](C(=O)NC(c5ccccc5)c5ccccc5)N4C(=O)[C@@H](NC(=O)[C@H](C)NC)C3)c2)CC[C@H]2CCC(C(=O)NC(c3ccccc3)c3ccccc3)N2C1=O (stereo partly drawn) [XIV] | – | – | – | – | – | – | – | – | – | – | – | – | – | – | – | – | – | – | No change |
| CN[C@@H](C)C(=O)N[C@H]1CN(S(=O)(=O)c2cccc(S(=O)(=O)N3CC[C@H]4CC[C@@H](C(=O)NC(c5ccccc5)c5ccccc5)N4C(=O)[C@@H](NC(=O)[C@H](C)NC)C3)c2)CC[C@H]2CCC(C(=O)NC(c3ccccc3)c3ccccc3)N2C1=O (stereo partly drawn) [compound 1 dihydrochloride amorphous form V] | 0.72 | Amorphous | 0.77 | Amorphous | 0.83 | Amorphous | 0.81 | Amorphous | 0.77 | Amorphous | 0.79 | Amorphous | 1.81 | Amorphous | 2.54 | Amorphous | 0.73 | Amorphous | No change |
| CN[C@@H](C)C(=O)N[C@H]1CN(S(=O)(=O)c2cccc(S(=O)(=O)N3CC[C@H]4CC[C@@H](C(=O)NC(c5ccccc5)c5ccccc5)N4C(=O)[C@@H](NC(=O)[C@H](C)NC)C3)c2)CC[C@H]2CCC(C(=O)NC(c3ccccc3)c3ccccc3)N2C1=O (stereo partly drawn) [compound 1 disulfate amorphous form XXIII] | 2.45 | Amorphous | 2.72 | Amorphous | 4.83 | Amorphous | 2.69 | Amorphous | 3.14 | Amorphous | 5.13 | Amorphous | 3.66 | Amorphous | 5.50 | Amorphous | 1.96 | Amorphous | – |
